Measurements from patent publication US8580753B2, “Modulation of telomere length in telomerase positive cells and cancer therapy” (ALT Solutions Inc., priority 2005, dated 2013).
Entries after “also recorded” stand apart in the source; their conditions may differ. Like-named read-outs stand apart in the source and are kept apart here.

Columns and labels:
HeLa cell line [1] = experiment: Telomere length by flow cytometry with telomere-specific PNA probe; assay type: cell-based, human
Protocol: (§1) Telomere length in GCV and ACV treated and untreated cell lines was measured by flow cytometry with a telomere-specific peptide nucleic acid (PNA) probe^23,24. To determine cell cycle distribution, cells were stained with propidium iodide (PI)^23.
(§2) The origin of the cell lines are uterine cervix (HeLa) and epithelial ovarian (NuTu-19). Cells were cultured in D-MEM media supplemented with 10% fetal calf serum at 37° C. in a humidified atmosphere of 5% CO2. For treatment of the cells with GCV, the media was supplemented with 1.5 µM of GCV (Cymevene, Hoffman-La Roche). For treatment of the cells with ACV, the media was supplemented with 3 µM of Aciclovir (Aciclovir, TEVA Pharm. Ind. Ltd, Israel).
(§3) For telomere length measurement by flow cytometry, cells were stained with telomere specific FITC conjugated (C3TA2)3 PNA (Applied Biosystems) probe and contrastained with 0.06 µg/ml PI as described by Rufer, N., Dragowska, W., Thornbury G., Roosnek, B., Lansdorp P. M. Telomere length dynamics in human lymphocyte subpopulations […]. Nat. Biotechnol. 16, 743-747 (1998)).

NuTu-19 cell line [2] = experiment: as above; assay type: cell-based; conditions: for telomere length: NuTu-19, GCV 1.5 μM or ACV 3.0 μM, 14 days
Protocol: as §1, §2, §3

HeLa cell line [3] = experiment: Cell cycle distribution and apoptosis by propidium iodide staining and flow cytometry; assay type: cell-based, human
Protocol: as §1
(§4) It is important to note that changes were rapid and could be detected after only 14 days of ACV treatment. In contrast, the nucleoside analog, AZT had no effect on telomere length or cell cycle distribution in telomerase positive cells, HeLa and NuTu-19, even at elevated concentrations e.g., 100 µM (data not shown).
as §2, §3

NuTu-19 cell line [4] = experiment: as above; assay type: cell-based
Protocol: as §1, §4, §2, §3

[5] = tested on: telomerase positive cell lines; experiment: DNA content by PI staining at later stages of treatment; assay type: cell-based; conditions: compared to untreated cells, cell line not specified
Protocol: A rational explanation of this fact is a short telomere induced chromosome end-to-end joining^25.
as §2, §3

NuTu-19 cells = experiment: Exemplary in vivo assay: pre-established NuTu-19 tumors in Fischer rats; conditions: for tumor growth: in drinking water ad libitum, administered 21-28 days to tumor bearing rats
Protocol: In another embodiment, the reagents and methods of the invention can be used to promote tumor regression in vivo in immunocompetent animals carrying pre-established tumors; i.e., the reagents of the invention can be used to treat animals with pre-existing tumors. In this case, the cancerous 10^6 NuTu-19 cells are injected subcutaneously in the flank of the Fischer rats to establish tumors.

[6] = tested on: telomerase positive cell lines; conditions: prolonged exposure, cited from earlier work
[7] = single oral dose of 300 mg; cited from earlier work
mammalian cells = conditions: short-time exposure, 5 μM, in vitro and in vivo; cited from earlier work
HeLa cells = experiment: Nude mice injected s.c. with HeLa cells, Valcyte in drinking water; assay type: in vivo
Protocol: Human cancer HeLa cell culture was purchased from ATCC. In all, 12 CD1/-nu and 12 NMRiJI-nu nude mice were purchased from Charles River Laboratories, Charles River Deutschland GmbH. These nude mice were injected s.c. with […] HeLa cells. Experimental group received valganciclovir in drinking water from day 0. Specifically, mice in the experimental groups (6 mice per strain) were exposed to Valcyte (val-ganciclovir) in drinking water (1 mg/ml) from day 0. […] In about 14 days, all mice were bearing the tumors.

[8] = GCV 1.5 μM or ACV 3.0 μM, 14 days
[9] = NuTu-19, GCV 1.5 μM or ACV 3.0 μM, 14 days
[10] = even at elevated concentrations e.g. 100 μM (data not shown)
[11] = NuTu-19, even at elevated concentrations e.g. 100 μM (data not shown)

Q: Which results are given for `Nc1nc2c(ncn2COCCO)c(=O)[nH]1` [ACV, 9-[2(hydromethoxy)-methyl] guanine]?
A: telomere length (HeLa cell line [1]; [8]): telomere shortening; telomere length (NuTu-19 cell line [2]): decrease in telomere length; also recorded: telomere shortening; apoptosis (HeLa cell line [3]; [8]): massive apoptosis; cell cycle distribution (HeLa cell line [3]; [8]): G2 arrest; apoptosis (NuTu-19 cell line [4]; [9]): massive apoptosis; cell cycle distribution (NuTu-19 cell line [4]; [9]): changes in cell cycle; also recorded: G2 arrest; DNA content (PI staining) [5]: higher DNA content; tumor growth (NuTu-19 cells): retarded tumor growth

Q: Which “effect on telomere length” value (HeLa cell line [1]; [10]) does the source give for `Cc1cn([C@H]2C[C@H](N=[N+]=[N-])[C@@H](CO)O2)c(=O)[nH]c1=O` [AZT, 3′-azido-2′,3′-dideoxythymidine] here?
A: no effect

Q: What about the “effect on telomere length” value (NuTu-19 cell line [2]; [11]) of the same molecule?
A: no effect

Q: And the “effect on cell cycle distribution” value (HeLa cell line [3]; [10])?
A: no effect

Q: What about the “effect on cell cycle distribution” value (NuTu-19 cell line [4]; [11]) of the same molecule?
A: no effect

Q: And the telomere shortening ([6]; 100 μM (Murakami et al. 1999))?
A: failed to induce any significant telomere shortening

Q: And the telomere shortening ([6]; 800 μM (Gomez et al. 1998; Tejera et al. 2001))?
A: failed to induce any significant telomere shortening

Q: And the peak serum concentration [7]?
A: less than 10 μM

Q: What about the time of absorption [7] of the same molecule?
A: ≤ 0.5 h

Q: What about the “toxic effects on mammalian cells” value (mammalian cells) of the same molecule?
A: induces undesirable toxic effects

Q: What does the source list for `Nc1nc(O)c2ncn(COC(CO)CO)c2n1` [GCV, ganciclovir]?
A: telomere length (HeLa cell line [1]; 1.5 μM GCV, 10 days, vs untreated cells (FIG. 1)): decrease in telomere length; telomere length (HeLa cell line [1]; [8]): telomere shortening; telomere length (NuTu-19 cell line [2]): telomere shortening; apoptosis (HeLa cell line [3]; 1.5 μM GCV, 10 days (FIG. 1)): massive apoptosis; cell cycle distribution (HeLa cell line [3]; 1.5 μM GCV, 10 days (FIG. 1, FIG. 3)): changes in the cell cycle distribution; apoptosis (HeLa cell line [3]; [8]): massive apoptosis; cell cycle distribution (HeLa cell line [3]; [8]): G2 arrest; cell cycle distribution (NuTu-19 cell line [4]; NuTu-19, 1.5 μM GCV, 10 days (FIG. 3)): changes in the cell cycle distribution; apoptosis (NuTu-19 cell line [4]; [9]): massive apoptosis; cell cycle distribution (NuTu-19 cell line [4]; [9]): G2 arrest; DNA content (PI staining) [5]: higher DNA content; survival (NuTu-19 cells; few weeks after the start of the treatment): 100%; tumor growth (NuTu-19 cells): retarded tumor growth

Q: Which tumor development (HeLa cells; 1 mg/ml in drinking water from day 0, all mice bearing tumors in about 14 days) does the source give for `CC(C)[C@H](N)C(=O)OCC(CO)OCn1cnc2c(=O)nc(N)[nH]c21` (stereo partly drawn) [Valcyte, valganciclovir] here?
A: All mice in control and treated groups had developed tumors

Q: And the tumor regression (HeLa cells; one mouse from the treated group, by about the 30th day, monotherapy, 1 mg/ml in drinking water)?
A: this tumor was eliminated

Q: And the tumor growth (HeLa cells; other mice in the treated groups, 1 mg/ml in drinking water)?
A: slowing of tumor growth (stabilization)
